The values below are quoted from earlier work in patent US20090114566A1, “METHOD OF UPGRADING HEAVY HYDROCARBON STREAMS TO JET PRODUCTS” (Chevron U.S.A. Inc., priority 2007, published 2009).

As usually defined, the LD50 is the dose at which mortality reaches 50%.

The structures appear in SMILES notation.

In one data set the test system is rats. The note with it: rat, in vivo, po.
Turning to `CCOCC(=O)O` [ethoxy-acetic acid], the LD50 is 1292 mg/kg.

As for `O=C(O)/C=C/C(=O)O` [fumaric acid], the 50% lethal dose (LD50) was 10700 mg/kg.

Turning to `O=CC(=O)O` [glyoxylic, glyoxylic acid], the LD50 was 3000 mg/kg.

Consider `O=C(O)CC(S)C(=O)O` (stereo not drawn) [mercapto-succinic acid], for which the 50% lethal dose (LD50) is 800 mg/kg.

For the molecule `COCC(=O)O` [methoxy-acetic acid], the 50% lethal dose (LD50) is on record as 3200 mg/kg.

In the case of `O=C(O)CCC(=O)O` [succinic acid], the LD50 is listed as 500 mg/kg.

The data set is the same for the next values; noted with them: single oral dose to rats.
On to `O=C(O)[C@H](O)[C@@H](O)[C@H](O)[C@H](O)CO` [gluconic acid], for which the LD50 is listed as 10380 mg/kg.

`CC(O)C(=O)O` (stereo not drawn) [lactic acid]: the LD50 was 3543 mg/kg.

Regarding `O=C(O)CC(O)C(=O)O` (stereo not drawn) [malic acid], the LD50 is given as 1600 mg/kg.
